# Entries after “also recorded” stand apart in the source; their conditions may differ.
# Key:
# Format in all cases: in vivo, human
# IL-8, MCP-1, MIP-1β = assay: Cytokine and chemokine serum levels (multiplex, Luminex) after IV PGG
# Experimental: (§1) IPD changes induced by yeast soluble β-glucan were evaluated in a Phase I healthy donor trial, which included three cohorts of 12 healthy human volunteers aged 18-65 years. In Cohort 1, subjects were administered a single dose of 4 mg/kg yeast soluble β-glucan by IV infusion over 2-3 hours. In Cohort 2, subjects were administered 4 mg/kg PGG by IV infusion over 2-3 hours once weekly for 3 weeks. Half of the subjects received premedications which included low dose corticosteroids (4 mg of dexamethasone, PO) and low-dose H1 antagonists (50 mg diphenhydramine.
# Subjects were stratified/classified into subgroups based on pre-infusion ABA levels. ABA cutoff levels were selected based on prior studies and are only exemplary. Classification may include only 2 subgroups based on an IgG ABA cutoff level of 15 μg/ml, 20 μg/ml, 25, μg/ml, 30 μg/ml, 35 μg/ml, 40 μg/ml, 45 μg/ml or 50 μg/ml. Classification may also include 3, 4, 5 or more subgroups with each subgroup corresponding to a specific IgG ABA level range. For example, a 3 subgroup classification may include a Low-ABA subgroup encompassing ABA level ranges of <15 μg/ml, <20 μg/ml, <25 μg/ml or <30 μg/ml, a Mid-ABA subgroup encompassing a range having a low end ABA level of 20 μg/ml, 25 μg/ml, 30 μg/ml, 35 μg/ml, 40 μg/ml or 45 μg/ml and a high end ABA level of 30 μg/ml, 35 μg/ml, 40 μg/ml, 45 μg/ml, 50 μg/ml or 55 μg/ml, and a High-ABA subgroup encompassing ABA level ranges of >35 μg/ml, >40 μg/ml, >45 μg/ml, >50 μg/ml, >55 μg/ml, >60 μg/ml, >65 μg/ml or >70 μg/ml. […] Serum and cellular IPD markers were analyzed pre-infusion, 15 minutes, 30 minutes and 1 hour post-infusion, end of infusion (EOI) and 1 hour, 2 hours, 3 hours, 4 hours, 24 hours, 48 hours and 168 hours after EOI.
# Cytokine and chemokine serum levels were measured using Novex magnetic multiplex assay (Life Technologies) the Luminex XMAP technology. […]
# The effect of premedications on IPD responses was also evaluated. […]
# [1] = tested on: IPD responses (SC5b-9, monocyte and neutrophil mobilization, MCP-1, CIC, IL-8); assay: Immunopharmacodynamic (IPD) responses taken together: dose and dosing interval comparison; settings: for IPD response: mid ABA (20-50 μg/ml) subjects
# Experimental: (§2) In Cohort 3, subjects received either 2 mg/kg PGG or 4 mg/kg PGG by IV infusion over 1-2 hours. The subjects were administered either dose of PGG once weekly for 2 weeks, then given a 2 week wash out (no PGG) and finally received one more dose of PGG (week 5). Adverse events and complete blood counts were evaluated. In addition, whole blood and serum was evaluated for the following at various time points post-infusion: PGG binding to immune cells (monocytes, neutrophils, B-cells, DC subsets), complement activation (C5a and Sc5b9), serum cytokine/chemokine levels, IgG ABA levels, flow cytometry of immune cells, circulating immune complex formation and Quantigene analysis of transcriptional profile. Table 1 lists each subject's pre-dose IgG ABA levels, PGG dose and whether they received premedications.
# Thus, changes in IPD responses induced by PGG administration are dependent on ABA levels.
# IPD responses were compared between subjects within subgroups administered doses of either 2 mg/kg and 4 mg/kg PGG. […] Therefore, an effective dose of PGG for Mid-ABA subjects is higher than an effective dose of PGG for High-ABA subjects. This is beneficial to High-ABA subjects because with a lower PGG dose, they will experience fewer adverse events.
# Increasing the time between soluble β-glucan doses may not only promote repeated acute IPD responses but also enhance acute IPD responses, which may increase the effectiveness of soluble β-glucan therapy. Subjects in Cohort 3, as described above, were administered a dose of PGG once weekly for 2 weeks, then given a 2 week wash out (no PGG) and finally received one more dose of PGG (week 5).
# Levels of CIC (FIG. 19), SC5b-9 (FIG. 20), neutrophil mobilization (FIG. 21), IL-8 (FIG. 22) and MCP-1 (FIG. 22) were also measured over the course of treatment. […] In some cases, acute IPD responses were only seen with the final dose—after the 2 week dosing interval. In other cases, the acute IPD responses were enhanced with the final dose. Thus, for some immunotherapies or even some individuals, increasing the amount of time between dosing with soluble β-glucan may lead to enhanced efficacy.
# [2] = Adverse events after a single dose of IV PGG without premedication
# Experimental: as §1, §2
# Adverse events were evaluated for subjects after a single dose of IV PGG. Table 2 lists ABA levels and adverse events for subjects that had not received premedication prior to PGG infusion.
substance,measurement,setting,value
"β(1,6)-[poly-(1,3)-D-glucopyranosyl]-poly-β(1,3)-D-glucopyranose [PGG]",PGG-mediated cytokine induction (IL-8) with premedications,"IL-8, MCP-1, MIP-1β; Mid-ABA and High-ABA subjects, dexamethasone and diphenhydramine premedication vs none",dampened
same,"increases in cytokine and chemokine serum levels, especially IL-8 and MCP-1","IL-8, MCP-1, MIP-1β; pre-dose to end of infusion, healthy subjects",consistently detected
same,"acute IPD response in IL-8, MCP-1 and MIP-1 levels","IL-8, MCP-1, MIP-1β; two High-ABA subjects, weekly dosing, after week 2 infusion",acute IPD response was seen
same,"acute IPD responses (CIC, SC5b-9, neutrophil mobilization, IL-8, MCP-1)","[1]; Cohort 3, dosing after a 2 week dosing interval",generated or enhanced
same,changes in IPD responses,"[1]; low-ABA subjects, PGG administration",very little to no changes in responses
same,IPD response,[1]; 2 mg/kg PGG,minimal response
same,IPD response,[1]; 4 mg/kg PGG,responded much better (on par with High-ABA subjects)
same,"IPD responses, 2 mg/kg vs 4 mg/kg dose",[1]; subjects with ABA>50 μg/ml,similar
same,adverse events vs ABA level,[2]; no premedication,more adverse events occurred as ABA levels increased
same,infusion reaction-related adverse events (CARPA),[2]; no premedication,"observed in some, but not all, subjects with ABA levels>20 ug/ml"
same,Adverse Events (CTCAE grade),"[2]; subject 002, pre-dose ABA 34.4, no premedication",None
same,Adverse Events (CTCAE grade),"[2]; subject 004, pre-dose ABA 39.7, no premedication",None
same,Adverse Events (CTCAE grade),"[2]; subject 006, pre-dose ABA 127, no premedication",Gr 1 chills; also recorded: Gr 2 nausea/emesis; also recorded: Gr 2 chest pressure
same,Adverse Events (CTCAE grade),"[2]; subject 010, pre-dose ABA 177.9, no premedication",Gr 1 back pain; also recorded: Gr 2 chest pressure; also recorded: Gr 2 nausea
same,Adverse Events (CTCAE grade),"[2]; subject 016, pre-dose ABA 27.6, no premedication",Gr 1 headache
same,Adverse Events (CTCAE grade),"[2]; subject 022, pre-dose ABA 87.8, no premedication",Gr 1 chest pressure; also recorded: Gr 1 light headedness; also recorded: Gr 1 abdominal cramping; also recorded: Gr 2 myalgia
same,Adverse Events (CTCAE grade),"[2]; subject 025, pre-dose ABA 9.9, no premedication",None
same,Adverse Events (CTCAE grade),"[2]; subject 034, pre-dose ABA 68.0, no premedication",Gr 1 chest pressure; also recorded: Gr 1 warm sensation; also recorded: Gr 1 light headedness; also recorded: Gr 1 nausea; also recorded: Gr 1 hand paresthesia; also recorded: Gr 2 chills; also recorded: Gr 3 headache
same,Adverse Events (CTCAE grade),"[2]; subject 037, pre-dose ABA 10.4, no premedication",None
same,Adverse Events (CTCAE grade),"[2]; subject 039, pre-dose ABA 13.6, no premedication",Gr 1 headache; also recorded: Gr 1 drowsiness
same,Adverse Events (CTCAE grade),"[2]; subject 043, pre-dose ABA 32.6, no premedication",Gr 2 headache
same,Adverse Events (CTCAE grade),"[2]; subject 047, pre-dose ABA 33.6, no premedication",None
same,Adverse Events (CTCAE grade),"[2]; subject 055, pre-dose ABA 56.2, no premedication",Gr 1 nausea; also recorded: Gr 1 flushing; also recorded: Gr 2 chest pressure; also recorded: Gr 2 dyspnea; also recorded: Gr 2 low back pain; also recorded: Gr 2 headache (delayed); also recorded: Gr 2 back pain (delayed); also recorded: Gr 2 neck/shoulder
same,Adverse Events (CTCAE grade),"[2]; subject 057, pre-dose ABA 37.3, no premedication",Gr 1 diarrhea
same,Adverse Events (CTCAE grade),"[2]; subject 058, pre-dose ABA 34.0, elevated pre-dose CIC, no premedication",Gr 1 dysuria (delayed); also recorded: Gr 2 myalgia (delayed); also recorded: Gr 2 arthralgia
same,Adverse Events (CTCAE grade),"[2]; subject 067, pre-dose ABA 15.0, no premedication",Gr 1 LE stiffness
same,Adverse Events (CTCAE grade),"[2]; subject 068, pre-dose ABA 26.1, no premedication",None
same,Adverse Events (CTCAE grade),"[2]; subject 070, pre-dose ABA 58.7, no premedication",Gr 1 headache
